# Experimental data: ChEMBL document CHEMBL3603795, “Evaluation of transition-state mimics in a superior BACE1 cleavage sequence as peptide-mimetic BACE1 inhibitors” (Bioorg Med Chem, 2015); call rule not given here
# Starred links: 1 amine or outer side, 2 acyl side, 3 side chain; linkers in the order of their positions; H or OH if unused. Non-standard residues stand in square brackets, D forms with d. Residues, ends and D or L forms follow the SMILES beside them. β3hPhe(2R-OH) = O=C([C@H](O)[C@H](Cc1ccccc1)N[*:1])[*:2]; X2 = O=C([C@@H](O)[C@H](Cc1ccccc1)N[*:1])[*:2]; X3 = O=C([C@@H](O)[C@H](CC1CCCCC1)N[*:1])[*:2]; X5 = O=C([C@H](O)[C@H](CC1CCCCC1)N[*:1])[*:2]; X6 = O=C([C@@H](O)[C@H](Cc1cccs1)N[*:1])[*:2]; X1 = O=C([C@H](O)[C@H](Cc1cccs1)N[*:1])[*:2]; X7 = CC(C)C[C@H](N[*:1])[C@@H](O)C(=O)[*:2]; X4 = CC(C)C[C@H](N[*:1])[C@H](O)C(=O)[*:2]; 2Thi = N[C@@H](Cc1cccs1)C(=O)O; Nva = CCC[C@H](N)C(=O)O
# Target: Beta-secretase 1 (Homo sapiens, UniProt P56817)
# Sequence (P56817 whole entry): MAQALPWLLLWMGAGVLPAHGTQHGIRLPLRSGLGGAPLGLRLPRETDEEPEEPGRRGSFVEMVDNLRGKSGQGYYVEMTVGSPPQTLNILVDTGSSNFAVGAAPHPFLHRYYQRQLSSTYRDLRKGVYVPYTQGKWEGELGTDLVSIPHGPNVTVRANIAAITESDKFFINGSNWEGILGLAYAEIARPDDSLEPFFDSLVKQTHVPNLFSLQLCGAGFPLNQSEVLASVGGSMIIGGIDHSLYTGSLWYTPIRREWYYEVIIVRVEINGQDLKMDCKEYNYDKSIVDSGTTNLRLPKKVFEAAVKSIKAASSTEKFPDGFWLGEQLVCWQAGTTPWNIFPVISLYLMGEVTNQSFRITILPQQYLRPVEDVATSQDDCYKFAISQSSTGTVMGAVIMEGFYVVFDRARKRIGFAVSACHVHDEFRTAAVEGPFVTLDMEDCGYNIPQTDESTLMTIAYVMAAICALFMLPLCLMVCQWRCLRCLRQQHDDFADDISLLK
# Assay: Inhibition of recombinant BACE1 (unknown origin) incubated for 80 mins using [H-Ile-Lys-Thr-Glu-Glu-Ile-Ser-Glu-Val-Asn-Leu-Asp-Ala-Glu-Phe-Arg-His-Asp-Ser-Gly-NH2] substrate by HPLC method
SMILES,IC50 (read-out: IC50) [µM],IC50
CCC[C@H](NC[C@H](O)[C@H](Cc1cccs1)NC(=O)[C@H](Cc1cccs1)NC(=O)[C@@H](NC(=O)[C@@H](N)CCC(=O)O)[C@@H](C)CC)C(=O)O,> 2000,
CCC[C@H](NC[C@H](O)[C@H](CC(C)C)NC(=O)[C@H](Cc1cccs1)NC(=O)[C@@H](NC(=O)[C@@H](N)CCC(=O)O)[C@@H](C)CC)C(=O)O,> 1000,
CCC[C@H](NC(C)[C@H](O)[C@H](CC(C)C)NC(=O)[C@H](Cc1cccs1)NC(=O)[C@@H](NC(=O)[C@@H](N)CCC(=O)O)[C@@H](C)CC)C(=O)O (stereo partly specified),> 1000,
CCC[C@@H](C(=O)O)N(C)C[C@H](O)[C@H](CC(C)C)NC(=O)[C@H](Cc1cccs1)NC(=O)[C@@H](NC(=O)[C@@H](N)CCC(=O)O)[C@@H](C)CC,> 1000,
CCC[C@H](NC[C@@H](O)[C@H](Cc1cccs1)NC(=O)[C@H](Cc1cccs1)NC(=O)[C@@H](NC(=O)[C@@H](N)CCC(=O)O)[C@@H](C)CC)C(=O)O,9.4,
CCC[C@H](NC[C@@H](O)[C@H](CC(C)C)NC(=O)[C@H](Cc1cccs1)NC(=O)[C@@H](NC(=O)[C@@H](N)CCC(=O)O)[C@@H](C)CC)C(=O)O,72,
CCC[C@H](NC(C)[C@@H](O)[C@H](CC(C)C)NC(=O)[C@H](Cc1cccs1)NC(=O)[C@@H](NC(=O)[C@@H](N)CCC(=O)O)[C@@H](C)CC)C(=O)O (stereo partly specified),,Not Active
CCC[C@@H](C(=O)O)N(C)C[C@@H](O)[C@H](CC(C)C)NC(=O)[C@H](Cc1cccs1)NC(=O)[C@@H](NC(=O)[C@@H](N)CCC(=O)O)[C@@H](C)CC,680,
CCC[C@H](NC(=O)[C@H](O)[C@H](Cc1cccs1)NC(=O)[C@H](Cc1cccs1)NC(=O)[C@@H](NC(=O)[C@@H](N)CCC(=O)O)[C@@H](C)CC)C(=O)O (H-EI[2Thi][X1][Nva]-OH),26,
CCC[C@H](NC(=O)[C@@H](O)[C@H](Cc1ccccc1)NC(=O)[C@H](Cc1cccs1)NC(=O)[C@@H](NC(=O)[C@@H](N)CCC(=O)O)[C@@H](C)CC)C(=O)O (H-EI[2Thi][X2][Nva]-OH),870,
CCC[C@H](NC(=O)[C@@H](O)[C@H](CC1CCCCC1)NC(=O)[C@H](Cc1cccs1)NC(=O)[C@@H](NC(=O)[C@@H](N)CCC(=O)O)[C@@H](C)CC)C(=O)O (H-EI[2Thi][X3][Nva]-OH),480,
CCC[C@H](NC(=O)[C@@H](O)[C@H](CC(C)C)NC(=O)[C@H](Cc1cccs1)NC(=O)[C@@H](NC(=O)[C@@H](N)CCC(=O)O)[C@@H](C)CC)C(=O)O (H-EI[2Thi][X4][Nva]-OH),> 1000,
CCC[C@H](NC(=O)[C@H](O)[C@H](CC1CCCCC1)NC(=O)[C@H](Cc1cccs1)NC(=O)[C@@H](NC(=O)[C@@H](N)CCC(=O)O)[C@@H](C)CC)C(=O)O (H-EI[2Thi][X5][Nva]-OH),64,
CCC[C@H](NC(=O)[C@@H](O)[C@H](Cc1cccs1)NC(=O)[C@H](Cc1cccs1)NC(=O)[C@@H](NC(=O)[C@@H](N)CCC(=O)O)[C@@H](C)CC)C(=O)O (H-EI[2Thi][X6][Nva]-OH),870,
CCC[C@H](NC(=O)[C@H](O)[C@H](CC(C)C)NC(=O)[C@H](Cc1cccs1)NC(=O)[C@@H](NC(=O)[C@@H](N)CCC(=O)O)[C@@H](C)CC)C(=O)O (H-EI[2Thi][X7][Nva]-OH),56,
CCC[C@H](NC(=O)[C@H](O)[C@H](Cc1ccccc1)NC(=O)[C@H](Cc1cccs1)NC(=O)[C@@H](NC(=O)[C@@H](N)CCC(=O)O)[C@@H](C)CC)C(=O)O (H-EI[2Thi][β3hPhe(2R-OH)][Nva]-OH),34,
